Data published in US6376512B1, “Therapeutic uses of quinoline derivatives” (Aventis Pharma Deutschland GmbH, priority 1997, dated 2002).
“Also recorded” adds a separate entry of the source. Where two headings read alike, the source gives them in different places.

Key:
[1] = tested on: human preadipocytes; assay: Adipocyte differentiation of primary human pre-adipocyte cultures (oil red-O); assay type: cell-based; conditions: for EC50: Homo sapiens, Adipocyte, human adipocyte differentiation in presence of insulin and dexamethasone
Procedure: Evaluation of the capacity to induce differentiation of primary human pre-adipocyte cultures to adipocytes.
The capacity of Compound VI to induce adipocyte differentiation of primary human pre-adipocyte cultures was evaluated and compared directly to Troglitazone®.
Human subcutaneous preadipocytes were isolated from adipose tissue obtained by liposuction surgery. Preadipocytes were inoculated at high density in preadipocyte medium (DME/F-10, 1:1, (v/v) containing 10% fetal calf serum). Cells were kept in preadipocytic medium overnight for attachment. […] The basal medium, which was used as the negative control, contained DME/F-10, biotin (33 μM), pantothenate (17 μM), insulin (100 nM), and dexamethasone (1 μM). The culture was maintained for 14 days with the compound treatment during the first five days. At the end of the culture, cells were fixed in 5% formalin and stained with oil red-O dye. The dye was extracted by isopropanol and quantitated by measuring the optical density at 500 nm.

[2] = target: T1, LTD4 receptor (Homo sapiens, UniProt Q9Y271); assay: LTD4 receptor binding in THP-1 cells; conditions: for Kb: THP-1 cells, read-out: LTD4 Binding (Kb for binding of compound to the LTD4 receptor)
T1 construct: endogenous in cells
T1 sequence (Q9Y271 1-337): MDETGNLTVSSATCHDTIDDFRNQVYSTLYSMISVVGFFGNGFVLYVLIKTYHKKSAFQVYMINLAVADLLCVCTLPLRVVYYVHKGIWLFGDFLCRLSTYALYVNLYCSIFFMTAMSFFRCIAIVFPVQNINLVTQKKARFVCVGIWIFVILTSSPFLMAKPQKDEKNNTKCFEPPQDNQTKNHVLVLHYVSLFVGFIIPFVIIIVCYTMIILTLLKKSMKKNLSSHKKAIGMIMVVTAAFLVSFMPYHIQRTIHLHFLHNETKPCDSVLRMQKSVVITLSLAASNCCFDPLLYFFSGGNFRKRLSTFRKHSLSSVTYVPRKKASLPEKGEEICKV

[3] = target: T2, LTD4 receptor (Cavia porcellus, UniProt Q2NNR5); assay: LTD4 binding, guinea pig receptor; conditions: read-out: Kd, antagonist of the guinea pig LTD4 receptor
T2 sequence (Q2NNR5 1-340): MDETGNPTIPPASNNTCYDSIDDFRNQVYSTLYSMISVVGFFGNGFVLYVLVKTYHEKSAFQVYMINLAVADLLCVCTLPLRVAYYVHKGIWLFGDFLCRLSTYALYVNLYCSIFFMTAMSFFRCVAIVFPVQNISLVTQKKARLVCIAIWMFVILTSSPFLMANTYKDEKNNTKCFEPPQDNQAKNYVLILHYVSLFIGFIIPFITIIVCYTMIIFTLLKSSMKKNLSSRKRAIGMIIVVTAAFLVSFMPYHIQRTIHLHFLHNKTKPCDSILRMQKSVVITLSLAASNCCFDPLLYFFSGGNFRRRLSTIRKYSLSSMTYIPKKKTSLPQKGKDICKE

[4] = tested on: db/db mice; assay: Oral (in-feed) efficacy in db/db mice, genetic model of type II diabetes; assay type: in vivo, mouse
Procedure: An in-feed study in this genetic model of type II diabetes was performed. […] The compound of formula VI and Troglitazone® were studied in a genetic model of diabetes (db/db mice). A total of 70 female db/db mice (C57Bl/Ks db+/+; Jackson Labs, Maine), 3 months of age, received either meal chow only (rodent chow # 5001), 50 or 150 mg/kg/day of the compound of formula VI and 50 or 150 mg/kg/day of Troglitazone® mixed with the food. Six animals were sacrificed on Day 0 to obtain baseline values, the remaining 64 animals were randomly distributed into 5 groups. On days 0, 8, 12 and 16 whole blood samples were taken via the tail vein and blood glucose was determined (in duplicate) using the One Touch® gluco-meter. On Day 16, animals were anesthetized using pentobarbital, blood was drawn into EDTA tubes and the following organs were removed: heart, liver, brain, white and brown adipose tissue and the tibia. Plasma was prepared and kept frozen until samples were analyzed for glucose, free fatty acids, insulin and triglycerides. [table] Plasma was analyzed for glucose, triglycerides, free fatty acids and insulin. The latter two methods were slightly modified to use smaller amounts of plasma. Glucose Analysis. Plasma glucose was measured with a Sigma Chemicals Diagnostic kit (#315-500). Triglyceride Analysis. Plasma triglycerides was measured with a Sigma Chemicals Diagnostic kit (#339-500P). Insulin Analysis. Plasma insulin was measured using a radioimmunoassay (RIA) kit from Linco Research Inc. (#RI-13K). This kit was modified slightly using 10 μl of plasma. This kit utilizes an antibody made specifically against rat insulin. The cross-reactivity of this antibody with mouse insulin is 100 percent. Free Fatty Acid Analysis. Plasma free fatty acids were measured using a kit obtained from Wako Chemicals Inc. (NEFA-C; #994-75409). This kit utilizes an in vitro enzymatic colorimetric method for the quantitation of non-esterified fatty acids in serum or plasma. This method relies upon the acylation of coenzyme A by the fatty acids in the presence of added acyl-CoA synthetase. This method was modified slightly to utilize 5 μl of plasma and was performed in a 96-well format (M. Johnson & J. Peters, J. Animal Science 71:753-756, 1993).

[5] = target: T3, PPAR-γ (Homo sapiens, UniProt P37231); assay: PPAR-γ ligand receptor binding; conditions: initial results
T3 sequence (P37231 1-505): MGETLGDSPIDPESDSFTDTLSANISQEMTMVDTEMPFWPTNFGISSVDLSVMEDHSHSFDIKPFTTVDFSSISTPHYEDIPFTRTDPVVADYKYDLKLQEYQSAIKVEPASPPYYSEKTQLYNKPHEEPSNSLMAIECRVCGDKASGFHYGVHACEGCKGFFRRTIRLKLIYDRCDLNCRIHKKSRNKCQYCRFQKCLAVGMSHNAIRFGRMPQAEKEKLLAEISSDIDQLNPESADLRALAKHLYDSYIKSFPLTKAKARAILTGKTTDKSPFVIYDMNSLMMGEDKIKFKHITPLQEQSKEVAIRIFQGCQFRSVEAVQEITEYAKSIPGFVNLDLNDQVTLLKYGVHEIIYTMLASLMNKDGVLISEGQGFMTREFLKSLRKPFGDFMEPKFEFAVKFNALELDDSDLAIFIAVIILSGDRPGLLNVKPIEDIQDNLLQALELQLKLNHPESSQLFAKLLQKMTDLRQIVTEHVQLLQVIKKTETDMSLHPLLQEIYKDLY

**Q.** For c1cc(OCc2ccc(-c3nnn[nH]3)cc2)cc(OCc2ccc3ccccc3n2)c1 [Example 27, 5-(4-(3-(2quinolinylmethyloxy)phenoxy-methyl)phenyl)tetrazole], which melting point is on record?
**A.** The melting point was 91 °C (dec.).

**Q.** Which melting point does the source give for c1ccc2nc(COc3ccc(COc4ccc(Cc5nnn[nH]5)cc4)cc3)ccc2c1 [Example 12, 5-[4(4-(2-quinolinylmethyloxy)benzyloxy)benzyl]tetrazole] here?
**A.** The melting point was 179 to 181 °C.

**Q.** With N#Cc1cccc(OCc2cccc(OCc3ccc4ccccc4n3)c2)c1 [Example 7, 3-[3-(2-quinolinylmethyloxy)benzyloxy]benzonitrile] as the molecule, how does the melting point read?
**A.** Its melting point is 86 to 87 °C.

**Q.** With COC(=O)c1cccc(COc2cccc(OCc3ccc4ccccc4n3)c2)c1 [Example 19, methyl 3-(3-(2-quinolinylmethyloxy)phenoxymethyl)benzoate] as the molecule, how does the melting point read?
**A.** Its melting point is 93 to 94 °C.

**Q.** For O=C(O)c1cccc(COc2cccc(OCc3ccc4ccccc4n3)c2)c1 [Example 20, 3-(3-(2-quinolinylmethyloxy)phenoxymethyl)benzoic acid], which melting point is on record?
**A.** The melting point was 149 to 151 °C.

**Q.** Which melting point does the source give for N#Cc1ccc(COc2cccc(OCc3ccc4ccccc4n3)c2)cc1 [Example 26, 4-(3-(2quinolinylmethyloxy)phenoxy-methyl)benzonitrile] here?
**A.** Its melting point is 112.5 °C.

**Q.** Which melting point does the source give for c1cc(COc2ccc(OCc3ccc4ccccc4n3)cc2)cc(OCc2nnn[nH]2)c1 [Example 32, 5-(3-(4-(2-quinolinylmethyloxy)phenoxymethyl)phenoxymethyl)tetrazole] here?
**A.** The melting point was 131 to 132 °C.

**Q.** For COC(=O)c1ccc(OCc2cccc(OCc3ccc4ccccc4n3)c2)c(OC)c1 [Example 14, methyl 3-methoxy-4-(3-(2quinolinylmethyloxy)benzyloxy)-benzoate], which melting point is on record?
**A.** Its melting point is 100 to 101 °C.

**Q.** For c1ccc(Cc2nn[nH]n2)c(COc2ccc(OCc3ccc4ccccc4n3)cc2)c1 [Compound VI, 5-[2-(4-(2-quinolinylmethoxy)phenoxymethyl)benzyl]tetrazole], which EC50 ([1]; in serum) is on record?
**A.** The EC50 was 1000 to 3000 nM.

**Q.** What about the EC50 ([1]; serum free medium) of the same molecule?
**A.** Its EC50 is 100 to 300 nM.

**Q.** What about the “activity in the differentiation assay” value ([1]; human preadipocytes) of the same molecule?
**A.** Its value is “active”.

**Q.** And the “potency in the differentiation assay relative to Troglitazone” value ([1]; human preadipocytes)?
**A.** Its value is “better potency than Troglitazone®”.

**Q.** What about the “binding to the LTD4 receptor (in words)” value [2] of the same molecule?
**A.** The value was “binds tightly”.

**Q.** And the Kb ([2]; in serum)?
**A.** Its Kb is 88 nM.

**Q.** What about the Kb [2] of the same molecule?
**A.** Its Kb is 38 nM.

**Q.** What about the Kd [3] of the same molecule?
**A.** The Kd was 3 nM.

**Q.** What about the lowering plasma glucose ([4]; db/db mice, 50 or 150 mg/kg/day mixed with the food, Day 16, FIG. 3A) of the same molecule?
**A.** Its lowering plasma glucose is “effective”.

**Q.** What about the “lowering plasma free fatty acids” value ([4]; db/db mice, 50 or 150 mg/kg/day mixed with the food, Day 16, FIG. 3B) of the same molecule?
**A.** Its value is “effective”.

**Q.** And the lowering plasma triglycerides ([4]; db/db mice, 50 or 150 mg/kg/day mixed with the food, Day 16, FIG. 3C)?
**A.** Its lowering plasma triglycerides is “effective”.

**Q.** And the lowering plasma insulin ([4]; db/db mice, 50 or 150 mg/kg/day mixed with the food, Day 16, FIG. 3D)?
**A.** The lowering plasma insulin was “effective”.

**Q.** And the “efficacy relative to Troglitazone” value ([4]; db/db mice, same doses, listed as compound of formula VI)?
**A.** The value was “significantly better efficacy; also recorded: more efficacious than Troglitazone®”.

**Q.** And the “potency relative to Troglitazone in lowering glucose” value ([4]; db/db mouse, in-feed administration, FIG. 4)?
**A.** Its value is “at least three times the potency of Troglitazone®”.

**Q.** What about the “potency as PPAR-γ ligand receptor binder relative to Troglitazone” value [5] of the same molecule?
**A.** The value was “more potent PPAR-γ ligand receptor binder than Troglitazone®”.

**Q.** Which melting point does the source give for c1ccc2nc(COc3ccc(COc4ccc(-c5nnn[nH]5)cc4)cc3)ccc2c1 [Example 11, 5-[4-(4-(2-quinolinylmethyloxy)benzyloxy)phenyl]tetrazole] here?
**A.** The melting point was 210 to 213 °C.

**Q.** Which melting point does the source give for c1cc(COc2cccc(-c3nnn[nH]3)c2)cc(OCc2ccc3ccccc3n2)c1 [Example 10, 5-[3-(3-(2-quinolinylmethyloxy)benzyloxy)phenyl]tetrazole] here?
**A.** The melting point was 169 to 172 °C.

**Q.** With COc1cc(C(=O)O)ccc1OCc1cccc(OCc2ccc3ccccc3n2)c1 [Example 15, 3-methoxy-4-(3-(2-quinolinylmethyloxy)benzyloxy)benzoic acid] as the molecule, how does the melting point read?
**A.** Its melting point is 188 to 190 °C.

**Q.** For Cc1c(C)c2c(c(C)c1O)CCC(C)(COc1ccc(CC3SC(=O)NC3=O)cc1)O2 (stereo not shown) [Troglitazone ®, Troglitazone, reference compound], which EC50 ([1]; serum free medium) is on record?
**A.** The EC50 was over 3000 nM.

**Q.** What about the Kb [2] of the same molecule?
**A.** The Kb was over 10000 nM.
